# Data from ChEMBL document CHEMBL1201862, “PubChem BioAssay data set” (2004).
# Activity calls are given as the source filed them. Rule as the data show it, for most assays here: actives have a measured EC50 and inactives only a lower limit.
# Key:
# [1] = cytotoxicity in HEK-293T cells, dose response, cytotoxicity control for BCR NF-kB inhibitor project, luminescence, B-cell screen hits (AID 489021); assay type: functional, cell-based;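 also: HEK-293T cells carrying an NF-kB luciferase reporter; cells exposed to compound for about 14 hours before viability readout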
# HeLa = assay: HeLa cell cytotoxicity, dose response, cytotoxicity control for MITF activator project, CellTiter-Glo luminescence, cherry-pick samples (AID 540259); assay type: functional, cell-based; details: Homo sapiens
# [2] = Luminescence Cell-Based Dose Response HTS to Identify Activators of Luciferase Translation or Activity in H4 […] Cells. [Related pubchem assays: 1829 (Project Summary), 1814 (Primary HTS)]; assay type: functional
# H4 = assay: Luminescence Cell-Based Dose Response HTS to Identify Activators of 5'UTR Stem-Loop Driven Prion Protein mRNA Translation in H4 Neuroglioblastoma Cells. [Related pubchem assays: 1829 (Project Summary), 1814 (Primary HTS)]; assay type: functional; details: Homo sapiens
# [3] = Luminescence Cell-Based Dose Confirmation HTS to Identify Activators of 5'UTR Stem-Loop Driven Alpha-Synuclein mRNA Translation in H4 Neuroglioblastoma Cells. [Related pubchem assays: 1829 (Project Summary), 1814 (Primary HTS)]; assay type: functional
# [4] = P. falciparum late gametocyte killing, dose response, luminescence (AID 1117278); assay type: functional, cell-based;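 also: gametocytes exposed to compound for 24 hours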
# [5] = Jurkat T cell cytotoxicity, dose response, cytotoxicity control for P. falciparum gametocyte viability project, luminescence (AID 1117277); assay type: functional, cell-based;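 also: potency reflects loss of cellular ATP meaning fewer viable cells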
# [6] = Luminescence Cell-Based Dose Retest to Confirm Inhibitors of Cancer Stem Cells. [Related pubchem assays (depositor defined):AID2717, AID2721]; assay type: functional; details: Homo sapiens
# [7] = NIH-3T3 fibroblast cytotoxicity, dose response, cytotoxicity control, cell-based, fluorescence, Alamar Blue, secondary assay (AID 2327); assay type: functional;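 also: NIH-3T3 mouse fibroblasts cultured with fluconazole at 8 µg/mL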
# [8] = biological target: T1, Serine/threonine-protein phosphatase (Candida dubliniensis (strain CD36 / CBS 7987 / NCPF 3949 / NRRLY-17841) (Yeast), UniProt B9W6M3); assay: calcineurin pathway inhibitors in yeast reporter, dose response, S. cerevisiae, CDRE-lacZ, luminescence, secondary (AID 2388); assay type: functional, cell-based;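 also: yeast reporter cells carrying a calcineurin-responsive lacZ construct stimulated with calcium chloride; luminescent beta-galactosidase reporter signal in whole cells rather than isolated phosphatase activity; potency for inhibition where a drop in reporter signal means calcineurin blockade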
# T1 sequence (B9W6M3 whole entry): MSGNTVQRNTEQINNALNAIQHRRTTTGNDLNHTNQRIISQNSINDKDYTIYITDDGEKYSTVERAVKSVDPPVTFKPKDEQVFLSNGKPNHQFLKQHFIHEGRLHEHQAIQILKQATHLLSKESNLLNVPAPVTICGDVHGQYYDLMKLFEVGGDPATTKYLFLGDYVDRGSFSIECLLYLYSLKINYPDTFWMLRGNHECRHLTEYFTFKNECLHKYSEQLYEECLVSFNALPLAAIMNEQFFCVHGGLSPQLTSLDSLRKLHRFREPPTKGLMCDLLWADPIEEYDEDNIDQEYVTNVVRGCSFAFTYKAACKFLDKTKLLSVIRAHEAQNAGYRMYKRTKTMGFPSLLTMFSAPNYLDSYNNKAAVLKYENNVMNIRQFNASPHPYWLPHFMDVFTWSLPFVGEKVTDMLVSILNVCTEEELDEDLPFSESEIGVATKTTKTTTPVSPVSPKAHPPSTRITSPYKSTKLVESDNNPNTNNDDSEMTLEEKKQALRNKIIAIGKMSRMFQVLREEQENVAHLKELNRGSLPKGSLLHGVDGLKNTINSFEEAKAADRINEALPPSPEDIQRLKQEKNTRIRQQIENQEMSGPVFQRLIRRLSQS
# [9] = biological target: ATP-dependent molecular chaperone HSP82 (Candida albicans (strain WO-1) (Yeast), UniProt C4YTQ8); assay: loss of DOC-induced GRE-beta-galactosidase reporter signal, dose response, Hsp90 inhibitor project, S. cerevisiae, luminescence (AID 2400); assay type: functional, cell-based;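 also: beta-galactosidase luminescence from glucocorticoid response element reporter as proxy for Hsp90 function; inhibitor potency where signal loss means Hsp90 inhibition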
# Sequence of ATP-dependent molecular chaperone HSP82 (C4YTQ8 whole entry): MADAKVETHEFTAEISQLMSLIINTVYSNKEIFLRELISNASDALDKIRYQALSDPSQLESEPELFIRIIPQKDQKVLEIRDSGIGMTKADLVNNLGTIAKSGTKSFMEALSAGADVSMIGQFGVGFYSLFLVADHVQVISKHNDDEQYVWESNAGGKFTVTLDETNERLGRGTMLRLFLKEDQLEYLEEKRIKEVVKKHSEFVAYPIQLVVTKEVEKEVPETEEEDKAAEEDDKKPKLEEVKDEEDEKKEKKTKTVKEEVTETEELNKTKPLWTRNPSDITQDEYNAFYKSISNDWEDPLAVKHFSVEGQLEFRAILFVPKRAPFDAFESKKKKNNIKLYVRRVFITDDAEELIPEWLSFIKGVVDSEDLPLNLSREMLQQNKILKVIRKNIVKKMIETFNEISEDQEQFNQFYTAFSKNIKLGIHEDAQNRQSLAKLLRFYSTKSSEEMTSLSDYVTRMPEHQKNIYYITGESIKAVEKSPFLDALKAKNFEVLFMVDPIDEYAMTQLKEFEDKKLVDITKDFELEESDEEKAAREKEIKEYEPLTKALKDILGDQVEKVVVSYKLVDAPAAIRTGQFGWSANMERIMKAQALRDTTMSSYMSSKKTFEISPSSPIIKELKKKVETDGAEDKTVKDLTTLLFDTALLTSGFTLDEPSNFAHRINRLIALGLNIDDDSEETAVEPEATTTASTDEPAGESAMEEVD
# [10] = C. albicans growth with fluconazole, confirmation, fluorescence, retest (AID 2467); assay type: functional, cell-based
# [11] = biological target: Heat shock protein HSP 90-alpha (Homo sapiens, UniProt P07900); assay: Luminescence-based dose response biochemical high throughput screening assay for inhibitors of the Heat Shock Protein 90 (HSP90). [Related pubchem assays: 1831 (Summary AID.), 1846 (Confirmation screen.), 1789 (Primary screen.)]
# [12] = growth suppression of beta-catenin-knockout colon cells, dose response, cell-based, HCT116, human colon tumor (AID 1045); assay type: functional;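 also: HCT116 colon tumor cells with beta catenin knocked out; cells exposed to compound for 60 hours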
# [13] = growth suppression of PTEN-null colon cells, dose response, cell-based, HCT116 PTEN knockout (AID 1047); assay type: functional;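 also: HCT116 colon tumor cells with PTEN knocked out; cells exposed to compound for 60 hours before readout; potency for loss of cell viability measured by luminescence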
# [14] = inhibitors of SNCA 5'UTR-driven reporter translation, confirmation, H4 neuroglioma cells, luminescence (AID 1988); assay type: functional, cell-based
# [15] = biological target: T2, Corticotropin-releasing factor receptor 2/Corticotropin-releasing factor-binding protein (Homo sapiens, UniProt P24387+Q13324); assay: activators of CRF receptor 2 with binding protein – uHTS hits, confirmation (AID 602473); assay type: functional; details: read-out: EC50_Mean
# T2 sequence (Q13324 whole entry): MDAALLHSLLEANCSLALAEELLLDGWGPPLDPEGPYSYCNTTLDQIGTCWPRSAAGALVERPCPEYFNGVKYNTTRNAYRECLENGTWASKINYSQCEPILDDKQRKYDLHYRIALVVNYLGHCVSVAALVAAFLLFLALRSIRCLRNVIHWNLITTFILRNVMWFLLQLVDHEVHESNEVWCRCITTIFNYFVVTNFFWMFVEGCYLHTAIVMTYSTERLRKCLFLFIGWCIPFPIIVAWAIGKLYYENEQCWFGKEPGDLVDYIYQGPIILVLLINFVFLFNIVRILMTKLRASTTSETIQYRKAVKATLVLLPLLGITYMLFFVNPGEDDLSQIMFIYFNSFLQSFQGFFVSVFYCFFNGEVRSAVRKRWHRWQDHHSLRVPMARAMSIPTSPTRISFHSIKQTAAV
# T2 sequence (P24387 whole entry): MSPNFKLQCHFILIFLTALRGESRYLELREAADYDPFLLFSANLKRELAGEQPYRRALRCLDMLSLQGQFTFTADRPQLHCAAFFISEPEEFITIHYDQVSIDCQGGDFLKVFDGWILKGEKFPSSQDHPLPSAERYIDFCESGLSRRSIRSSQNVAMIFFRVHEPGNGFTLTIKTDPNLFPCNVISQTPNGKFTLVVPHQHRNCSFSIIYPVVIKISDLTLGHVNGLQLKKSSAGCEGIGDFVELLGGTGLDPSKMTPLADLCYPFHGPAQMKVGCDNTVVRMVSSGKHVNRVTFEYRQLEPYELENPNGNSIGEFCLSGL
# [16] = inhibitors of firefly luciferase expression or activity, dose response, H4 neuroglioma cells, luminescence (AID 1990); assay type: functional, cell-based
# [17] = Luminescence Cell-Based Dose Response HTS to Identify Inhibitors of 5'UTR Stem-Loop Driven Prion Protein mRNA Translation in H4 Neuroglioblastoma Cells. [Related pubchem assays: 1827 (Project Summary), 1813 (Primary HTS)]; assay type: functional
# [18] = HEp-2 cell cytotoxicity, dose response, cytotoxicity control for RSV inhibitor project, HTS (AID 2410); assay type: functional; details: human respiratory syncytial virus
smiles,measurement,setting,value
CCCS(=O)(=O)Nc1cccc(-c2ccc3nnc(C)n3n2)c1,IC50,[1],> 80 µM (inactive)
Cc1ccccc1C(=O)O/N=C(\N)Cc1cccs1,AC50,HeLa,32 µM (active)
same,EC50,[2],67.6 µM (active)
same,EC50,H4,6.9 µM (active)
same,EC50,[3],> 120 µM (not active)
Cc1cc(C)n(-c2ccc(C(=O)NCc3cccs3)cc2)n1,IC50,[4],> 109 µM (inactive)
same,IC50,[5],> 83.3 µM (inactive)
COc1ccc(C2=NN(c3nc4ccccc4s3)C(=O)C2)cc1,AC50,[6],2.21 µM (active)
same,EC50,[7],> 160 µM (inconclusive)
same,EC50,[8],3.92 µM (active)
same,EC50,[9],1.4 µM (active)
same,EC50,[10],> 38 µM (not active)
CCC(C)c1ccc(OCc2ccc(C(=O)OC)o2)cc1 (stereo unspecified),IC50,[11],2.29 µM (active)
CCc1ccc(-c2nc(CN3CCC(C(=O)NCCN(CC)c4ccccc4)CC3)c(C)o2)cc1,EC50,[12],6.8 µM (active)
same,EC50,[13],7.82 µM (active)
C=CCNC(S)=Nc1sc2c(c1C(=O)OCC)CC(C)(CC)OC2 (stereo unspecified),EC50,[7],> 150 µM (inconclusive)
same,EC50,[8],> 180 µM (inactive)
same,EC50,[9],19.2 µM (active)
same,EC50,[10],0.889 µM (active)
Cc1ccc(-c2csc3ncn(CC(=O)N4CCOCC4)c(=O)c23)cc1,IC50,[4],> 109 µM (inactive)
same,IC50,[5],> 83.3 µM (inactive)
CC1=NN(c2ccccc2)C(=O)/C1=C\N(O)c1ccccc1,IC50,[11],2.78 µM (active)
Cc1cccc(C)c1NC1=NC(=S)N(c2ccc(C(=O)O)cc2)C12CCCCC2,IC50,[4],> 109 µM (inactive)
same,IC50,[5],> 83.3 µM (inactive)
C[C@H]1CC[C@@H]2[C@@H](C)[C@H]3[C@H](C[C@H]4[C@@H]5CC=C6C[C@@H](O[C@@H]7O[C@H](CO)[C@H](O)[C@H](O[C@@H]8O[C@H](CO)[C@@H](O)[C@H](O)[C@H]8O)[C@H]7O[C@@H]7O[C@@H](C)[C@H](O)[C@@H](O)[C@H]7O)CC[C@]6(C)[C@H]5CC[C@]34C)N2C1,EC50,[12],22.1 µM (active)
same,EC50,[14],> 120 µM (not active)
same,EC50,[15],9.48 µM (active)
same,EC50,[13],25.2 µM (active)
same,EC50,[16],13.5 µM (active)
same,EC50,[17],> 120 µM (not active)
Cc1csc(NC(=O)CCc2c(C)nc3cc(-c4ccc(Cl)cc4)nn3c2C)n1,IC50,[1],> 80 µM (inactive)
CCCn1nnc2sc3c(c2c1=O)CCC(C)C3 (stereo unspecified),AC50,HeLa,55.9 µM (active)
same,EC50,[2],0.528 µM (active)
same,CC50,[18],> 50 µM (active)
same,EC50,H4,16.2 µM (active)
same,EC50,[3],41.1 µM (active)
c1ccc(-c2cnnc(N3CCCCC3)n2)cc1,AC50,HeLa,191 µM (active)
CCCCC(=O)NC(=S)Nc1cccc(NC(=O)c2ccco2)c1,EC50,[7],> 150 µM (inconclusive)
same,EC50,[8],> 180 µM (inactive)
same,EC50,[9],> 160 µM (inactive)
same,EC50,[10],4.79 µM (active)
